Test results: patent US7435754B2, “Laulimalide microtubule stabilizing agents” (Utah State University, priority 2000, dated 2008)
Where two headings read alike, the source gives them in different places.

What was measured:
[1] = system: SK-OV-3 human ovarian carcinoma cell line; assay: Inhibition of cell proliferation, SRB assay, SK-OV-3; format: cell-based; conditions: read-out: IC50 for inhibition of cell proliferation
Description: (§1) The A-10 rat aortic smooth muscle and SK-OV-3 human ovarian carcinoma cell lines were obtained from the American Type Culture Collection (Manassas, Va.) and were cultured in BME containing 10% FBS and 50 μg/mL gentamycin sulfate. A sub-line of SK-OV-3 selected for resistance to vinblastine (SKVLB-1) was provided by Dr. Victor Ling (British Columbia Cancer Center, Vancouver, British Columbia) and was maintained in BME containing 10% FBS and 50 μg/mL gentamycin sulfate. The MDA-MB-435 human mammary adenocarcinoma cell line was obtained from Dr. Mai Higazi (Georgetown University, Washington, D.C.), and was maintained in Richters medium containing 10% FBS and 50 μg/mL gentamycin sulfate. Vinblastine was added to a final concentration of 1 μg/mL to SKVLB-1 cells 24 hours after passage to maintain selection pressure for P-glycoprotein-overexpressing cells.
(§2) The IC50 for inhibition of cell proliferation was determined by measuring cell-associated protein after drug treatment using the sulforhodamine B assay.
(§3) The early literature on laulimalide reported that it was a cytotoxin, but without specifying a mechanism. Experiments were conducted to determine the IC50 values for laulimalide and isolaulimalide in two drug-sensitive cell lines, MDA-MB-435 and SK-OV-3, and in a multidrug-resistant cell line, SKVLB-1. Cells were treated with varying concentrations of the drugs for 48 hours, and cell-associated protein was determined using the SRB assay. The IC50 for each compound was calculated for each cell line.

[2] = system: SKVLB-1 cell line (P-glycoprotein-overexpressing sub-line of SK-OV-3); assay: Inhibition of cell proliferation, SRB assay, multidrug-resistant SKVLB-1; format: cell-based, human; conditions: for IC50: Homo sapiens, read-out: IC50 for inhibition of cell proliferation; for Resistance Factor: drug-resistant SKVLB-1 versus parental SK-OV-3 IC50
Description: as §1, §2, §3

A-10 cells [3] = assay: Immunofluorescence of cellular microtubules and mitotic spindles; format: cell-based, rat; conditions: for sensitivity of stabilized cellular microtubules to vinblastine / morphological effects on cellular microtubules: A-10 cells; for effect on mitotic spindles: A-10 cells and SK-OV-3 cells; for morphological effects on cellular microtubules: 18 hours, laulimalide 2 μM, isolaulimalide 2-20 μM, paclitaxel 1-20 μM
Description: A-10 cells were grown to 70-85% confluence on glass coverslips in BME supplemented with 10% FBS. Drug compounds in PBS were added to the indicated final concentrations and cells were incubated for an additional […].
(§4) For the staining of microtubules and intermediate filaments, the cells were fixed with cold methanol for 5 minutes, blocked for 20 minutes with PBS containing 10% calf serum to block nonspecific binding sites, and incubated at 37° C. for 90 min with monoclonal anti-β-tubulin at the dilutions recommended by the manufacturer. Bound primary antibodies were subsequently visualized by a one hour incubation with fluorescein(FITC)-conjugated sheep antimouse IgG (F-3008; Sigma). The coverslips were washed, stained with 0.1 μg/mL DAPI for 10 minutes, mounted on microscope slides and the fluorescence patterns were examined and photographed using a Zeiss Axioplan microscope equipped with epifluorescence optics for fluorescein and DAPI.
A-10 cells were treated with laulimalide, isolaulimalide, or paclitaxel for 18 hours and the morphological effects on microtubules examined by indirect immunofluorescence techniques.

bovine brain tubulin = assay: Tubulin polymerization in vitro; format: biochemical; conditions: for effect on tubulin polymerization (in words): absence of polymerization promoters; for EC50: Table 2
Excerpt: FIG. 3 collectively is a graphic representation comparing the effects of Laulimalide and paclitaxel on tubulin polymerization, in which the polymerization of bovine brain tubulin was monitored, and in which:
One characteristic of the microtubule-stabilizing agents paclitaxel, discodermolide, epothilones A and B, and eleutherobin is the ability of these agents to initiate the polymerization of tubulin in the absence of polymerization promoters, such as glycerol. Studies were undertaken to determine the effects of laulimalide on tubulin polymerization.
Samples of the tubulin polymer formed were examined by electron microscopy to determine whether the increase in turbidity measured during the polymerization experiments was due to the formation of microtubule-like polymers or the formation of other structures.

[4] = system: MDA-MB-435 human mammary adenocarcinoma cell line; assay: Inhibition of cell proliferation, sulforhodamine B (SRB) assay, MDA-MB-435; format: cell-based; conditions: for IC50: Homo sapiens
Description: as §1, §2, §3

A-10 cells [5] = assay: Micronuclei formation, DAPI staining; format: cell-based, rat; conditions: for effect on nuclear structure: A-10 and SK-OV-3 cells, wide range of concentrations; for cells exhibiting micronuclei: A-10 cells, 0.02-2 μM, 18 hours
Description: FIG. 1 is a graphic representation comparing the effects of Laulimalide and paclitaxel on micronuclei formation, in which A-10 cells were treated for 18 hours with Laulimalide or paclitaxel, the cells were fixed and nuclei were visualized by DAPI staining;
as §4
The effects of laulimalide on nuclear structure are visible: The normal rounded shape of the nucleus, which is devoid of microtubules, can be detected, whereas in laulimalide-treated cells this distinct microtubule-free area containing the discrete central nucleus was lost and only vesicle-like areas devoid of microtubules remained. […] Similar nuclear changes occurred with isolaulimalide. Paclitaxel also initiated the formation of micronuclei, as has been reported by others.
The difference between the two drugs was statistically significant at all five concentrations tested (P<0.0001).

[6] = system: A-10 rat aortic smooth muscle cell line; assay: Inhibition of cell proliferation, A-10 nontransformed line; format: cell-based
Description: as §1, §2
The IC50 for inhibition of proliferation was also determined in the A-10 cell line, a nontransformed line that was used to show the effects of microtubule-stabilizing agents on cellular structures. […]

MDA-MB-435 cells = assay: Cell cycle distribution by flow cytometry; format: cell-based, human; conditions: MDA-MB-435, 20 nM
Description: FIG. 2 collectively is a graphic representation comparing the effects of Laulimalide on cell cycle distribution, wherein log phase growth cultures of MDA-MB-435 cells were treated, the cells were fixed, stained, and analyzed on a Coulter EPICS XL-MCL flow cytometer and plotted as events versus propidium iodide fluorescene intensity, and in which:
A common characteristic of anti-microtubule agents is their ability to initiate mitotic arrest. […] This is consistent with the effects of other antimicrotubule agents, where disruption of microtubule dynamics prevents normal mitotic progression and leads to mitotic arrest. […] The mitotic cells were rounded, and the spindles formed a circular pattern with spindle microtubules radiating outward from a microtubule-free core in the center of the cell. In the mitotic cells, the nuclear membranes were not apparent, and the chromatin was condensed and aligned in a circular pattern.
The ultimate mechanism of action of many cytotoxic cancer chemotherapeutic agents is the initiation of pathways of gene and protein expression leading to apoptosis. Antimicrotubule drugs including paclitaxel, vinblastine, and cryptophycin 1 initiate apoptosis both in vitro and in vivo. […] The loss of cellular DNA is detected by the appearance of the subdiploid peak when apoptotic cells are analyzed by flow cytometry. […]

caspase 3 / PARP = assay: Caspase 3 activation and PARP proteolysis, immunoblot of cell lysates; format: cell-based; conditions: cells treated 42 and 48 hours
Excerpt: During apoptosis, specific cysteine proteases called the caspases are activated. Activation of the caspase cascade leads to the proteolytic degradation of specific cellular proteins. The activation of caspase 3 and the proteolysis of the DNA repair enzyme PARP, a downstream substrate of caspase 3, were examined in cell lysates from laulimalide-treated cells. Activation of caspase 3 leads to the loss of the 32 kDa proenzyme and the formation of the activation products p17 and p12. […] The loss of the p32 proenzyme is seen at 48 hours. The specific proteolysis of PARP by caspase 3 leads to the formation of two products, an 89 kDa COOH-terminal fragment and a 24 kDa N-terminal fragment. The proteolysis of PARP and the appearance of the 89 kDa degradation product coincided with the activation of caspase 3.

[7] = MDA-MB-435, 48 h, read-out: IC50 for inhibition of cell proliferation

SMILES	IC50 ([1]; SK-OV-3, 48 h) [µM]	IC50 ([2]; SKVLB1, 48 h) [µM]	Resistance Factor [2]	sensitivity of stabilized cellular microtubules to vinblastine (A-10 cells [3])	effect on mitotic spindles (A-10 cells [3])	morphological effects on cellular microtubules (A-10 cells [3])	effect on tubulin polymerization (in words) (bovine brain tubulin)	IC50 [4, 7] [µM]	effect on nuclear structure (A-10 cells [5])	polymerization of tubulin at 0° C. (bovine brain tubulin)	EC50 (bovine brain tubulin) [µM]	cells exhibiting micronuclei (A-10 cells [5])	further results
C=C1C[C@H](C)C[C@@H]2CC=C[C@@H](C/C=C\C(=O)OC3CC(OC3/C=C/[C@@H]3CC(C)=CCO3)[C@@H](O)[C@@H](O)C1)O2 (stereo partly drawn) [Isolaulimalide, isolaulimalide]	2.57	2.65	1.03	resistant to vinblastine-induced depolymerization	Abnormal mitotic spindles	increase in the density of cellular microtubules, but no microtubule bundles were present	stimulated tubulin polymerization	1.97	formation of multiple micronuclei	–	–	–	IC50 values, inhibition of cell proliferation (in words) ([4]; cell lines of Table 1): low μM range
C=C1C[C@H](C)C[C@@H]2CC=C[C@@H](C/C=C\C(=O)OC([C@@H](O)/C=C/[C@@H]3CC(C)=CCO3)C[C@@H]3OC3[C@@H](O)C1)O2 (stereo partly drawn) [Laulimalide, laulimalide]	0.0115 ± 0.00053	1.21	105	resistant to vinblastine-induced depolymerization	Abnormal mitotic spindles	bundles of short tufts of microtubules	stimulated tubulin polymerization	0.00574 ± 0.00058	formation of multiple micronuclei	Neither paclitaxel nor laulimalide promoted the polymerization	4.32 ± 0.4	approximately 60%	IC50 ([6]; A10, read-out: IC50 for inhibition of proliferation): 51 µM; subdiploid peak (apoptosis) (MDA-MB-435 cells; 18 hours): doubling of the subdiploid peak; effect on cell cycle (MDA-MB-435 cells; within nine hours): cell cycle arrest in G2-M; caspase 3 activation and PARP cleavage (caspase 3 / PARP): Caspase 3 was activated and PARP proteolytically cleaved; kinetics of tubulin formation relative to 20 μM paclitaxel (bovine brain tubulin; 20 μM): twice as fast; additional tubulin polymer formed relative to paclitaxel (bovine brain tubulin; 20 μM of each drug): approximately 30%; stability of tubulin polymers formed (bovine brain tubulin; cold and CaCl2): insensitive to cold and CaCl2-induced depolymerization; IC50 ([4]; MDA-MB-435, read-out: IC50 values, inhibition of cell proliferation (summary of Table 1)): 0.005 to 0.012 µM
CC(=O)O[C@H]1C(=O)[C@@]2(C)[C@H]([C@H](OC(=O)c3ccccc3)[C@]3(O)C[C@H](OC(=O)[C@H](O)[C@@H](NC(=O)c4ccccc4)c4ccccc4)C(C)=C1C3(C)C)[C@]1(OC(C)=O)CO[C@@H]1C[C@@H]2O [Paclitaxel, reference compound]	–	–	>58,480	resistant to vinblastine-induced depolymerization	Abnormal mitotic spindles	formation of a highly organized array of microtubules, some of which formed thick microtubule bundles	–	–	–	Neither paclitaxel nor laulimalide promoted the polymerization	1.44 ± 0.06	approximately 40%	IC50 ([1]; SK-OV-3, 48 hours, SRB, mean ± SD): 0.00171 ± 0.00107 µM; IC50 ([6]; A10, A-10 cell line, read-out: IC50 for inhibition of proliferation): 40 µM; IC50 ([2]; SKVLB1, SKVLB (SKVLB-1), 48 hours, SRB, mean ± SD): > 100 µM; inhibition of the SKVLB-1 cell line ([2]; concentrations up to 100 μM): ≤ 70%; IC50 ([4]; MDA-MB-435, 48 hours, SRB, mean ± SD, read-out: IC50 for inhibition of cell proliferation): 0.00102 ± 0.00025 µM
